Experimental data as given in US20180071317A1, “USE OF AGENTS THAT ALTER THE PERITUMORAL ENVIRONMENT FOR THE TREATMENT OF CANCER” (SERVICIO ANDALUZ DE SALUD, priority 2011, published 2018).

Key:
[1] = tested on: fibroblasts (PHF) co-cultured with tumor cells of human colon adenocarcinoma (SW-403); assay: Marker expression (IHC) in PHF co-cultured with SW-403 tumor cells; format: cell-based; settings: co-culture with SW-403; SP 1 μM + antagonist 1 μM; 48 h
Procedure: (§1) All cultures were maintained 48 hours, following which the same cells were included in paraffin blocks for subsequent analysis of the expression of different markers by immunohistochemistry (see Example 1). The primary antibodies used to perform immunohistochemical assays and their concentration are detailed in Example 2. All experiments were carried out sixfold. Analyzed markers in fibroblast cells (stromal cells) were: TGF-α, TGF-β1, TGF-β2, TGF-β3, SPARC, MMP-3, MMP-7, MMP-9, MMP-11, MMP-13 and MMP-14.

[2] = tested on: fibroblasts (PHF) co-cultured with tumor cells of human Edwing sarcoma (MHH-ES-1); assay: Marker expression (IHC) in PHF co-cultured with MHH-ES-1 tumor cells; format: cell-based; settings: PHF co-cultured with MHH-ES-1 + SP + NK1 antagonist
Procedure: (§2) All cultures were maintained 48 hours, following which the same cells were included in paraffin blocks for subsequent analysis of the expression of different markers by immunohistochemistry (see Example 1). […] All experiments were carried out sixfold. Analyzed markers in fibroblast cells (stromal cells) were: TGF-α, TGF-β1, TGF-β2, TGF-β3, SPARC, MMP-3, MMP-7, MMP-9, MMP-11, MMP-13 and MMP-14.

[3] = tested on: fibroblasts of tumors produced by lung carcinoma non small cell human (HCC-44) cells; assay: Marker expression (IHC) in fibroblasts of tumor or peritumoral area, mouse model, HCC-44; format: in vivo; settings: HCC-44 tumors in mice, 30 mg/kg/day oral, 7 days
Procedure: Subsequently, the expression in fibroblasts tumoral and peritumoral area of molecular markers associated with progression and maintenance of tumors: TGF-α, TGF-β1, TGF-β2, TGF-β3, MMP-7, MMP-11, MMP-14 were analyzed by immunohistochemistry.
Were injected with 2×10^7 cells tumors (corresponding, in each case to each of the tumor types as specified in Table 9) in 200 of PBS subcutaneously μl. […] Mice were randomized into two groups when the tumors reached a volume of 75 mm^3 One group was treated with non-peptide receptor antagonists NK1 and the other with placebo 200μ1. […] Tumors and samples of non-neoplastic stromal areas remote from the tumor were halved, formalin fixed (4%) and then were included in paraffin blocks for analysis by immunohistochemistry.
The expression on fibroblast cells obtained in the animal model was analyzed by immunohistochemistry, of the above markers: TGF-α, TGF-β1, TGF-β2, TGF-β3, MMP-7, MMP-1 1, MMP-14MP-14. […] This process was realized in mice treated with non-peptide antagonists of NK1 receptor and in untreated animals (control).

[4] = tested on: fibroblasts (PHF) cells co-cultured with human T lymphoma tumor (DERL-7); assay: Marker expression (IHC) in PHF co-cultured with DERL-7 tumor cells; format: cell-based; settings: PHF co-cultured with DERL-7 + SP + NK1 antagonist
Procedure: as §1

[5] = tested on: co-cultures of tumor cells-endothelial cells (C-12210); assay: Inhibition/survival in co-cultures of primary human tumor cells and endothelial cells; format: cell-based; settings: survival in reference to control, SP 1 μM, Vestipitant 1 μM
Procedure: To check that the interaction of primary tumor cells extracted directly from human with human vascular endothelial cells, promotes the survival of both cell types, co-cultures were performed microvascular endothelial cells from juvenile foreskins (PromoCell GmbH, Sickingenstraβe 63/65, D-69126 Heidelberg, Germany; reference C-12210) with tumor cells obtained directly from primary human tumors.
A total of 6 wells containing tumor cells were used as control for survival. Another 6 wells containing tumor cells were cultured with addition of endothelial cells.
Subsequently, cells were embedded in paraffin for analysis by immunohistochemistry. In order to identify the different cell types and quantity of them [They were labelled with primary antibodies specific for human endothelial cells (anti-CD31), carcinoma cells (Anti-Cytokeratins Spread Spectrum), glioma (Anti-glial fibrillary acidic protein), fibrosarcoma and malignant fibrous histiocytoma (Anti-Smooth Muscle Actin), Ewing sarcoma (Anti-CD99), Melanoma (Anti-HMB45), leukemias and lymphomas (Anti-Common Antigen Leucitario) and myeloma (anti CD 138). All antibodies are distributed by Dako and were used at the same concentration which is supplied (supplied pre-diluted—“ready to use”).

[6] = tested on: fibroblasts (PHF) co-cultured with human glioma tumor cells (GAMG); assay: Marker expression (IHC) in PHF co-cultured with GAMG tumor cells; format: cell-based; settings: co-culture with GAMG; SP 1 μM + antagonist 1 μM; 48 h;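 also: percentage of PHF fibroblasts positive for each marker, cultured in fresh plasma from a healthy donor, six replicates, with fibroblasts cultured alone as reference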
Procedure: as §2

[7] = tested on: fibroblasts (PHF) co-cultured with tumor cells of human endometrial carcinoma (AN3-CA); assay: Marker expression (IHC) in PHF co-cultured with AN3-CA tumor cells; format: cell-based; settings: co-culture with AN3-CA; SP 1 μM + antagonist 1 μM; 48 h;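 also: cultured in fresh healthy-donor blood plasma with added antibiotic-antimycotic, run in six replicates, values give percent of fibroblasts positive for each marker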
Procedure: as §2

[8] = tested on: human primary macrophages (PHM); assay: Marker expression (immunohistochemistry) in human primary macrophages with SP alone or with NK1 antagonists; format: cell-based; settings: SP 1 μM + antagonist 1 μM; 48 h
Procedure: In this sense the next step was to analyze the effect exerted by the treatment with non-peptide NK1 antagonists in human primary macrophages (PHM) obtained and purified from pleural effusion samples obtained from men with chronic age range between 45 and 55 years. Briefly, the pleural fluid from chronic (rich in macrophages) was centrifuged.
After 48 hours of culture, cells were harvested and cellular paraffin blocks were constructed for immunohistochemical analysis (see Example 1). To analyze the expression of markers EGF, MMP-9, VEGF and IL-8 antibodies were used as follows: EGF (rabbit monoclonal antibody, anti-EGF; 07-1432. Merck-Millipore), MMP-9 (polyclonal rabbit anti-MMP-9: SAB4501896, Sigma-Aldrich), VEGF (mouse monoclonal anti-VEGF, GF25-100UG, Merck-Millipore) and TNF-α (mouse monoclonal anti-TNF-α, number MAB 1021 catalogue, obtained from Merck-Millipore). All of these antibodies were used at a concentration of 1/1000. System for labelling with a secondary antibody specific for the primary antibodies obtained from rabbit or mouse was used, as was necessary in each case, both the Envision (Dako). All experiments were carried out sixfold.

[9] = Carcinoma of lung, (Small cell carcinoma in Table 36)
[10] = Carcinoma of lung, Non Small Cell Carcinoma in Table 36
[11] = Carcinoma of thyroid, (Follicular Carcinoma in Table 36)
[12] = Carcinoma of thyroid, (Papillary Carcinoma in Table 36)

SMILES: Cc1cc(F)ccc1[C@H]1CNCCN1C(=O)N(C)[C@H](C)c1cc(C(F)(F)F)cc(C(F)(F)F)c1 [Vestipitant]
- PHF cells expressing MMP-3 [1]: 0%
- PHF cells expressing MMP-7 [1]: 0%
- PHF cells expressing MMP-9 [1]: 0%
- PHF cells expressing MMP-11 [1]: 0%
- PHF cells expressing MMP-13 [1]: 0%
- PHF cells expressing MMP-14 [1]: 0%
- PHF cells expressing SPARC [1]: 0%
- PHF cells expressing TGF-α [1]: 0%
- PHF cells expressing TGF-β1 [1]: 0%
- PHF cells expressing TGF-β2 [1]: 0%
- PHF cells expressing TGF-β3 [1]: 0%
- cells expressing MMP-3 [2]: 0%
- cells expressing MMP-7 [2]: 0%
- cells expressing MMP-9 [2]: 0%
- cells expressing MMP-11 [2]: 0%
- cells expressing MMP-13 [2]: 0%
- cells expressing MMP-14 [2]: 0%
- cells expressing SPARC [2]: 0%
- cells expressing TGF-α [2]: 0%
- cells expressing TGF-β1 [2]: 0%
- cells expressing TGF-β2 [2]: 0%
- cells expressing TGF-β3 [2]: 0%
- fibroblasts expressing MMP-7 [3]: 0%
- fibroblasts expressing MMP-11 [3]: 0%
- fibroblasts expressing MMP-14 [3]: 0%
- fibroblasts expressing TGF-α [3]: 0%
- fibroblasts expressing TGF-β 1 [3]: 0%
- fibroblasts expressing TGF-β 2 [3]: 0%
- fibroblasts expressing TGF-β 3 [3]: 0%
- cells expressing MMP-3 [4]: 0%
- cells expressing MMP-7 [4]: 0%
- cells expressing MMP-9 [4]: 0%
- cells expressing MMP-11 [4]: 0%
- cells expressing MMP-13 [4]: 0%
- cells expressing MMP-14 [4]: 0%
- cells expressing SPARC [4]: 0%
- cells expressing TGF-α [4]: 0%
- cells expressing TGF-β1 [4]: 0%
- cells expressing TGF-β2 [4]: 0%
- cells expressing TGF-β3 [4]: 0%
- Endothelial cells co-cultured with tumor cells + SP + Vestipitant ([5]; Carcinoma of Colon): 54 ± 3%
- Tumor cells co-cultured with endothelial cells + SP + Vestipitant ([5]; Carcinoma of Colon): 65 ± 6%
- Endothelial cells co-cultured with tumor cells + SP + Vestipitant ([5]; Carcinoma of Pancreas): 55 ± 3%
- Tumor cells co-cultured with endothelial cells + SP + Vestipitant ([5]; Carcinoma of Pancreas): 47 ± 5%
- Endothelial cells co-cultured with tumor cells + SP + Vestipitant ([5]; Carcinoma of breast): 55 ± 4%
- Tumor cells co-cultured with endothelial cells + SP + Vestipitant ([5]; Carcinoma of breast): 55 ± 5%
- Endothelial cells co-cultured with tumor cells + SP + Vestipitant ([5]; Carcinoma of cervix): 47 ± 4%
- Tumor cells co-cultured with endothelial cells + SP + Vestipitant ([5]; Carcinoma of cervix): 47 ± 4%
- Endothelial cells co-cultured with tumor cells + SP + Vestipitant ([5]; Carcinoma of endometrial): 56 ± 5%
- Tumor cells co-cultured with endothelial cells + SP + Vestipitant ([5]; Carcinoma of endometrial): 47 ± 6%
- Endothelial cells co-cultured with tumor cells + SP + Vestipitant [5, 9]: 45 ± 6%
- Tumor cells co-cultured with endothelial cells + SP + Vestipitant [5, 9]: 67 ± 5%
- Endothelial cells co-cultured with tumor cells + SP + Vestipitant [5, 10]: 45 ± 3%
- Tumor cells co-cultured with endothelial cells + SP + Vestipitant [5, 10]: 64 ± 6%
- Endothelial cells co-cultured with tumor cells + SP + Vestipitant ([5]; Carcinoma of ovarian): 44 ± 4%
- Tumor cells co-cultured with endothelial cells + SP + Vestipitant ([5]; Carcinoma of ovarian): 57 ± 6%
- Endothelial cells co-cultured with tumor cells + SP + Vestipitant ([5]; Carcinoma of prostate): 51 ± 6%
- Tumor cells co-cultured with endothelial cells + SP + Vestipitant ([5]; Carcinoma of prostate): 48 ± 6%
- Endothelial cells co-cultured with tumor cells + SP + Vestipitant ([5]; Carcinoma of stomach): 62 ± 3%
- Tumor cells co-cultured with endothelial cells + SP + Vestipitant ([5]; Carcinoma of stomach): 56 ± 4%
- Endothelial cells co-cultured with tumor cells + SP + Vestipitant [5, 11]: 46 ± 4%
- Tumor cells co-cultured with endothelial cells + SP + Vestipitant [5, 11]: 47 ± 5%
- Endothelial cells co-cultured with tumor cells + SP + Vestipitant [5, 12]: 52 ± 5%
- Tumor cells co-cultured with endothelial cells + SP + Vestipitant [5, 12]: 55 ± 6%
- Endothelial cells co-cultured with tumor cells + SP + Vestipitant ([5]; Fibrosarcoma): 46 ± 7%
- Tumor cells co-cultured with endothelial cells + SP + Vestipitant ([5]; Fibrosarcoma): 56 ± 7%
- Endothelial cells co-cultured with tumor cells + SP + Vestipitant ([5]; Glioma): 54 ± 3%
- Tumor cells co-cultured with endothelial cells + SP + Vestipitant ([5]; Glioma): 47 ± 5%
- Endothelial cells co-cultured with tumor cells + SP + Vestipitant ([5]; Hodgkin's Lymphoma): 47 ± 5%
- Tumor cells co-cultured with endothelial cells + SP + Vestipitant ([5]; Hodgkin's Lymphoma): 76 ± 5%
- Endothelial cells co-cultured with tumor cells + SP + Vestipitant ([5]; Leukemia B): 47 ± 4%
- Tumor cells co-cultured with endothelial cells + SP + Vestipitant ([5]; Leukemia B): 53 ± 5%
- Endothelial cells co-cultured with tumor cells + SP + Vestipitant ([5]; Leukemia T): 57 ± 4%
- Tumor cells co-cultured with endothelial cells + SP + Vestipitant ([5]; Leukemia T): 56 ± 4%
- Endothelial cells co-cultured with tumor cells + SP + Vestipitant ([5]; Malignant fibrous histiocytoma): 53 ± 4%
- Tumor cells co-cultured with endothelial cells + SP + Vestipitant ([5]; Malignant fibrous histiocytoma): 46 ± 7%
- Endothelial cells co-cultured with tumor cells + SP + Vestipitant ([5]; Melanoma): 55 ± 5%
- Tumor cells co-cultured with endothelial cells + SP + Vestipitant ([5]; Melanoma): 44 ± 4%
- Endothelial cells co-cultured with tumor cells + SP + Vestipitant ([5]; Myeloma): 56 ± 7%
- Tumor cells co-cultured with endothelial cells + SP + Vestipitant ([5]; Myeloma): 66 ± 3%
- Endothelial cells co-cultured with tumor cells + SP + Vestipitant ([5]; Neuroblastoma): 46 ± 3%
- Tumor cells co-cultured with endothelial cells + SP + Vestipitant ([5]; Neuroblastoma): 56 ± 4%
- Endothelial cells co-cultured with tumor cells + SP + Vestipitant ([5]; Non-Hodgkin's Lymphoma B): 65 ± 4%
- Tumor cells co-cultured with endothelial cells + SP + Vestipitant ([5]; Non-Hodgkin's Lymphoma B): 43 ± 5%
- Endothelial cells co-cultured with tumor cells + SP + Vestipitant ([5]; Non-Hodgkin's Lymphoma T): 48 ± 6%
- Tumor cells co-cultured with endothelial cells + SP + Vestipitant ([5]; Non-Hodgkin's Lymphoma T): 81 ± 5%
- Endothelial cells co-cultured with tumor cells + SP + Vestipitant ([5]; Renal carcinoma): 54 ± 3%
- Tumor cells co-cultured with endothelial cells + SP + Vestipitant ([5]; Renal carcinoma): 54 ± 4%
- Endothelial cells co-cultured with tumor cells + SP + Vestipitant ([5]; Sarcoma of Ewing): 46 ± 4%
- Tumor cells co-cultured with endothelial cells + SP + Vestipitant ([5]; Sarcoma of Ewing): 47 ± 6%
- PHF cells expressing MMP-3 [6]: 0%
- PHF cells expressing MMP-7 [6]: 0%
- PHF cells expressing MMP-9 [6]: 0%
- PHF cells expressing MMP-11 [6]: 0%
- PHF cells expressing MMP-13 [6]: 0%
- PHF cells expressing MMP-14 [6]: 0%
- PHF cells expressing SPARC [6]: 0%
- PHF cells expressing TGF-α [6]: 0%
- PHF cells expressing TGF-β1 [6]: 0%
- PHF cells expressing TGF-β2 [6]: 0%
- PHF cells expressing TGF-β3 [6]: 0%
- PHF cells expressing MMP-3 [7]: 0%
- PHF cells expressing MMP-7 [7]: 0%
- PHF cells expressing MMP-9 [7]: 0%
- PHF cells expressing MMP-11 [7]: 0%
- PHF cells expressing MMP-13 [7]: 0%
- PHF cells expressing MMP-14 [7]: 0%
- PHF cells expressing SPARC [7]: 0%
- PHF cells expressing TGF-α [7]: 0%
- PHF cells expressing TGF-β1 [7]: 0%
- PHF cells expressing TGF-β2 [7]: 0%
- PHF cells expressing TGF-β3 [7]: 0%
- macrophages expressing EGF [8]: 0%
- macrophages expressing MMP-9 [8]: 0%
- macrophages expressing VEGF [8]: 0%
